We go through 6 compounds from US10052320B2, “Substituted quinoxalines as FGFR kinase inhibitors” (ASTEX THERAPEUTICS LIMITED, priority 2011, dated 2018).

The test system of data set [1] is Ba/F3-FGFR1-transfected cells in the presence of 10 ng/ml murine IL3. Nature of the data set: Ba/F3-FGFR1 (plus IL3) cellular proliferation counterscreen, Alamar Blue. Conditions: Mus musculus; plus IL3, 384 well; read-out: BAF3-FGFR 1 (PLUS IL3) 384 well pIC50 (converted). In kind it is cell-based. How it is done:
Ba/F3-FGFR1 (Minus IL3 or Plus IL3) (Cellular Proliferation Assay)
(§1) In a 384 well plate, 100 nl of compound dilution in DMSO was sprayed before adding 50 μl cell culture medium (phenol red free RPMI-1640, 10% FBS, 2 mM L-Glutamine and 50 μg/ml Gentamycin) containing 20000 cells per well of Ba/F3-FGFR1-transfected cells. Cells were put in an incubator at 37° C. and 5% CO2. After 24 hours, 10 μl of Alamar Blue solution (0.5 mM K3Fe(CN)6, 0.5 mM KaFe(CN)6, 0.15 mM Resazurin and 100 mM Phosphate Buffer) was added to the wells, incubated for 4 hours at 37° C. and 5% CO2 before RFU's (Relative Fluorescence Units) (ex. 540 nm., em. 590 nm.) were measured in a flurorescence plate reader.
(§2) As a counterscreen the same experiment was performed in the presence of 10 ng/ml murine IL3.
as §1, with “a 96” for “a 384”, “plate, 180” for “plate, 100 nl of compound dilution in DMSO was sprayed before adding 50”, “containing 10000” for “containing 20000”, “Ba/F3-FGFR1-transfected cells were pipette and 20 μl of compound dilution in DMSO was added.” for “Ba/F3-FGFR1-transfected cells.”, “hours, 40” for “hours, 10”
(In general: The purpose of a counterscreen is to sort out artefacts and off-target activity.)

The test system of data set [2] is Ba/F3-Flt3-transfected cells in the presence of 10 ng/ml murine IL3. Nature of the data set: Ba/F3-Flt3 (plus IL3) cellular proliferation counterscreen, Alamar Blue. In kind it is cell-based. Conditions: Mus musculus; plus 10 ng/ml murine IL3; read-out: BAF3-FLT3 (PLUS IL3) 384 well pIC50 (converted). How it is done: (§3) Ba/F3-Flt3 (Minus IL3 or Plus IL3) (Cellular Proliferation Assay)
as §1, with “Ba/F3-Flt3-transfected” for “Ba/F3-FGFR1-transfected”
as §2
as §1, with “a 96” for “a 384”, “plate, 180” for “plate, 100 nl of compound dilution in DMSO was sprayed before adding 50”, “containing 10000” for “containing 20000”, “of Ba/F3-Flt3-transfected cells were pipette and 20 μl of compound dilution in DMSO was added.” for “of Ba/F3-FGFR1-transfected cells.”, “hours, 40” for “hours, 10”

Data set [3] concerns the target Ba/F3-KDR-transfected cells (Homo sapiens, UniProt P35968). Nature of the data set: Ba/F3-KDR (minus IL3) cellular proliferation assay, Alamar Blue. In kind it is cell-based. How it is done:
Ba/F3-KDR (Minus IL3 or Plus IL3) (Cellular Proliferation Assay)
as §1, with “Ba/F3-KDR-transfected” for “Ba/F3-FGFR1-transfected”
as §2
as §1, with “a 96” for “a 384”, “plate, 180” for “plate, 100 nl of compound dilution in DMSO was sprayed before adding 50”, “containing 10000” for “containing 20000”, “of Ba/F3-KDR-transfected cells were pipette and 20 μl of compound dilution in DMSO was added.” for “of Ba/F3-FGFR1-transfected cells.”, “hours, 40” for “hours, 10”, “CO2” for “CO2 before”

A further data set has as its target KDR (h) (VEGFR2) (Homo sapiens, UniProt P35968). The data set can be described thus: KDR (VEGFR2) (enzymatic assay), TR-FRET. The data set is classed as biochemical. How it is done:
KDR (VEGFR2) (Enzymatic Assay)
In a final reaction volume of 30 μL, KDR (h) (150 ng/ml) was incubated with 50 mM HEPES pH 7.5, 6 mM MnCl2, 1 mM DTT, 0.1 mM Na3VO4, 0.01% Triton-X-100, 500 nM Btn-Flt3 and 3 μM ATP in the presence of compound (1% DMSO final). After incubation for 120 minutes at room temperature the reaction was stopped with 2.27 nM EU-anti P-Tyr, 7 mM EDTA, 31.25 nM SA-XL-665 and 0.02% BSA which was present for 60 minutes at room temperature. Time-Resolved Fluorescence Resonance Energy Transfer (TR-FRET) signal (ex340 nm. Em 620 nm, em 655 nm) was measured afterwards and results are expressed in RFU (Relative Fluorescence Units).
Background: Time-resolved FRET reads energy transfer from a long-lived donor to a nearby acceptor.

Data set [4] addresses T1, Ba/F3-Flt3-transfected cells (Homo sapiens, UniProt P36888, cells depend on it, form not given).
T1 sequence (P36888 1-993): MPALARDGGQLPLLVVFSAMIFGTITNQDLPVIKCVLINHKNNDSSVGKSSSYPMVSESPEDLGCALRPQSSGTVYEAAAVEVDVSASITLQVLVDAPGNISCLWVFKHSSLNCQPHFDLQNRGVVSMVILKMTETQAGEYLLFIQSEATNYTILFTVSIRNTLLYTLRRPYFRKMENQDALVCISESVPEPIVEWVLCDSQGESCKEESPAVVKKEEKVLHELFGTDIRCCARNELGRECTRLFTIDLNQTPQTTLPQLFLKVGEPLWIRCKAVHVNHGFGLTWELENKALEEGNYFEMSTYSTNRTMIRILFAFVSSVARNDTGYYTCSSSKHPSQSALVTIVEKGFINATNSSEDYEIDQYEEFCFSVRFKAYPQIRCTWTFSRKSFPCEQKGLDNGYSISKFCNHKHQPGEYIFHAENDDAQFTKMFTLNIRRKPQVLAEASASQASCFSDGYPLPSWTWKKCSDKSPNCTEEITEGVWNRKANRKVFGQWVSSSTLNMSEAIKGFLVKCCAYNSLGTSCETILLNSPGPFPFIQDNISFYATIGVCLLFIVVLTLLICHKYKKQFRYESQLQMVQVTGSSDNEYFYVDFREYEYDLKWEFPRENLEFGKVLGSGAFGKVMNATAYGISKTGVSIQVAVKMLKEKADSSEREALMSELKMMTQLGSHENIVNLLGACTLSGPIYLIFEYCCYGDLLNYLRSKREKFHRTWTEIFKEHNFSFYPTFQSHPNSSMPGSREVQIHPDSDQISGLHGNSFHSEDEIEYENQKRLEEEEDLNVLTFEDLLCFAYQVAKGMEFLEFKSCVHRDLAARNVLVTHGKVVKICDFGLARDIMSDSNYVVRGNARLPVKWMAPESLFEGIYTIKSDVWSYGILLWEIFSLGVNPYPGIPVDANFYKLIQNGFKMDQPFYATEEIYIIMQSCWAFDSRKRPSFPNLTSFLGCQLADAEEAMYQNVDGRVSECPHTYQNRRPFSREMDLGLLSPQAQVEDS
The data set can be described thus: Ba/F3-Flt3 (minus IL3) cellular proliferation assay, Alamar Blue. The data set is classed as cell-based. How it is done: as §3
Cells were put in an incubator at 37° C. and 5% CO2. After 24 hours, 10 μl of Alamar Blue solution (0.5 mM K3Fe(CN)6, 0.5 mM KaFe(CN)6, 0.15 mM Resazurin and 100 mM Phosphate Buffer) was added to the wells, incubated for 4 hours at 37° C. and 5% CO2 before RFU's (Relative Fluorescence Units) (ex. 540 nm., em. 590 nm.) were measured in a flurorescence plate reader. […]
as §1, with “a 96” for “a 384”, “plate, 180” for “plate, 100 nl of compound dilution in DMSO was sprayed before adding 50”, “containing 10000” for “containing 20000”, “of Ba/F3-Flt3-transfected cells were pipette and 20 μl of compound dilution in DMSO was added.” for “of Ba/F3-FGFR1-transfected cells.”, “hours, 40” for “hours, 10”
A general note: Resazurin is reduced to fluorescent resorufin, in cell work by metabolically active cells.

Data set [5] concerns Ba/F3-Flt3-transfected cells in the presence of 10 ng/ml murine IL3. Nature of the data set: Ba/F3-Flt3 (plus IL3) cellular proliferation counterscreen, Alamar Blue. In kind it is cell-based. The following applies: Mus musculus, read-out: BAF3-FLT3 (PLUS IL3) 96 well pIC50 (converted).

Where a name gives a salt, the structure may show the parent alone. Read-outs that look alike come from different tables or passages of the source.

KDR (h) (VEGFR2), sequence (P35968 20-1356): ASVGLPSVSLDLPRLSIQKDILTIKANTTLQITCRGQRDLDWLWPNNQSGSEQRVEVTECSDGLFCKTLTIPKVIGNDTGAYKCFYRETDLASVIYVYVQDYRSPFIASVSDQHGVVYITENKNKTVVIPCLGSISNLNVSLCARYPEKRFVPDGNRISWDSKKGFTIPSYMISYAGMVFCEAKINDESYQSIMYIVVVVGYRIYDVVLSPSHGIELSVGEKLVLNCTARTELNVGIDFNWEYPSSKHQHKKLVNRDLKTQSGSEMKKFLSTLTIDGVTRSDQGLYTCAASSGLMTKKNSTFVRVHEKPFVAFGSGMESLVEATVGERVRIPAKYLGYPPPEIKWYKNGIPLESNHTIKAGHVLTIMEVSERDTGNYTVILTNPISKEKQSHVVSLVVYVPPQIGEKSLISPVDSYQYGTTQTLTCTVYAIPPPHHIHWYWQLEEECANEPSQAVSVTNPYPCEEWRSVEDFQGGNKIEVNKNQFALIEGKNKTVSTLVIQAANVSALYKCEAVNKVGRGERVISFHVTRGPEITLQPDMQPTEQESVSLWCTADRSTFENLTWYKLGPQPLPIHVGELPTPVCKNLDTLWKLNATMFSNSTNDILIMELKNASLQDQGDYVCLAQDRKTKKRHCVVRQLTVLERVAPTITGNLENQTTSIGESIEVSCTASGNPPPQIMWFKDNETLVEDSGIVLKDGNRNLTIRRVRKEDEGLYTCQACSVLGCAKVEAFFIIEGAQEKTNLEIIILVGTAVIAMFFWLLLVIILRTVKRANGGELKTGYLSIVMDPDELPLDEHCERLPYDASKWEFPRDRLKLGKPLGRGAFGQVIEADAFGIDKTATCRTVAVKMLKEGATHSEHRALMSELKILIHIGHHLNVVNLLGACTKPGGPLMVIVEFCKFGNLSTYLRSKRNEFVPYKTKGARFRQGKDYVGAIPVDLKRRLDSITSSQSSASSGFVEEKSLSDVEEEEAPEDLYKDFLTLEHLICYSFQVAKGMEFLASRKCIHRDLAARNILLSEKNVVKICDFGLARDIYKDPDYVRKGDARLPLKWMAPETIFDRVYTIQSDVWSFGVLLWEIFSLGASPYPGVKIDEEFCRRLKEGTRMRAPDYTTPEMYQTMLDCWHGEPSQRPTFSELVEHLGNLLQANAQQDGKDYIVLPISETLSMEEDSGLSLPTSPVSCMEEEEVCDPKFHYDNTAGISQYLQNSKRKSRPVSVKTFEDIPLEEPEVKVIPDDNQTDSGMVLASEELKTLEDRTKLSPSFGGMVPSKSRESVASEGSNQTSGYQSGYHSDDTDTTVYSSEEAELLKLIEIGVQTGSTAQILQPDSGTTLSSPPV
Ba/F3-KDR-transfected cells, sequence (P35968 whole entry, change not shown): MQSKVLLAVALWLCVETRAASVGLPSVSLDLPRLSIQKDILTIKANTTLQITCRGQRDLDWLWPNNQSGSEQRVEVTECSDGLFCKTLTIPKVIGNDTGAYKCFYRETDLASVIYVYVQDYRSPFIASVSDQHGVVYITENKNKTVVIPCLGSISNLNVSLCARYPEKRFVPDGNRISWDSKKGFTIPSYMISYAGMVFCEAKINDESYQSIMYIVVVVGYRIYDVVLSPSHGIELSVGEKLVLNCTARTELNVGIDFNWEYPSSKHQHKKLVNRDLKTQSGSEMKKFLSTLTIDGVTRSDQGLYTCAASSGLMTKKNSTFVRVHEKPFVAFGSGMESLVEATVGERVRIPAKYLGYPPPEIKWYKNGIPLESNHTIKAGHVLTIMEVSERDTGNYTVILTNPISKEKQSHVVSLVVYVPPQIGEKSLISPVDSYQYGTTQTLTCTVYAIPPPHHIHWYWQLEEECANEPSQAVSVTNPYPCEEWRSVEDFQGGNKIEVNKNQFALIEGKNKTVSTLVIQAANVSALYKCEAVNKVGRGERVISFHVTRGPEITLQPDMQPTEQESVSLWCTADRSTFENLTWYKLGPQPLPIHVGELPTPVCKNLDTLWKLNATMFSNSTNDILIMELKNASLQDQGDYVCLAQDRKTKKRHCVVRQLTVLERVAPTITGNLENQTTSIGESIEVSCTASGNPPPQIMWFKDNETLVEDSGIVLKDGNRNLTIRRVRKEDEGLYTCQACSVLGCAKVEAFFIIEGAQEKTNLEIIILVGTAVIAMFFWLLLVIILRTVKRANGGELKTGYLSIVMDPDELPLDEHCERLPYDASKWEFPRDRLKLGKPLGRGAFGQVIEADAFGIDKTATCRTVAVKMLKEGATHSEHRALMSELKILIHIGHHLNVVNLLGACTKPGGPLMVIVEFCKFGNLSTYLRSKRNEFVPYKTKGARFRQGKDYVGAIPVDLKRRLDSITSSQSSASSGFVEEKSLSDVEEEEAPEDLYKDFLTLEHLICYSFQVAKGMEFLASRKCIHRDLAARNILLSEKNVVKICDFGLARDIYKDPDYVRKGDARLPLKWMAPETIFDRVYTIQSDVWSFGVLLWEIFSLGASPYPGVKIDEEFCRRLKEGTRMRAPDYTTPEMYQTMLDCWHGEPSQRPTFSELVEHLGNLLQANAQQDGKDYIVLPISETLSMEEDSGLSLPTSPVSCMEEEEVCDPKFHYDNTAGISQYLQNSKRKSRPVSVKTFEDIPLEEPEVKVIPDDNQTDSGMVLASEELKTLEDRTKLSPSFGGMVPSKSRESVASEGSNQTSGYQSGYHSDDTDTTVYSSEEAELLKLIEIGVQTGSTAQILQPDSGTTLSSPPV

`COc1cc(OC)cc(N(CCCO)c2ccc3ncc(-c4cnc(OC)nc4)nc3c2)c1` [Compound 141]: the IC50 in data set [1] is above 10 µM; in data set [2], above 10 µM; on KDR (h) (VEGFR2) it was above 1 µM. The “BAF3-KDR (MIN IL3) 384 well pIC50” value in data set [3] (minus IL3) is on record as below 5.
As usually defined, the melting point is the temperature, or range, at which the solid turns liquid. `COc1cc(OC)cc(N(CC2CC2)c2ccc3ncc(-c4ccc(N)nc4)nc3c2)c1` [Compound 94] displayed a melting point of 185 °C. Further, in data set [4] (minus IL3), the “BAF3-FLT3 (MIN IL3) 96 well pIC50” value is below 5 and the “BAF3-FLT3 (MIN IL3) 384 well pIC50” value is below 5. The IC50 in data set [5] (plus 10 ng/ml murine IL3) is above 10 µM. In data set [3] (minus IL3), the “BAF3-KDR (MIN IL3) 96 well pIC50” value was below 5 and the “BAF3-KDR (MIN IL3) 384 well pIC50” value is given as below 5. This compound also had an IC50 at KDR (h) (VEGFR2) of 2.14 µM.
`COc1cc(OC)cc(N(CC2CC2)c2ccc3ncc(-c4ccccc4)nc3c2)c1` [Compound 119] registered a melting point of 84 °C. The “BAF3-FLT3 (MIN IL3) 384 well pIC50” value in data set [4] (minus IL3) is recorded as below 5. Further, the “BAF3-KDR (MIN IL3) 384 well pIC50” value in data set [3] (minus IL3) is below 5. For the same compound, the IC50 against KDR (h) (VEGFR2) was above 1 µM.
For the compound `COc1cc(OC)cc(N(CC2CC2)c2ccc3ncc(-c4ccc(OC)nc4)nc3c2)c1` [Compound 91], the melting point turned out to be 116 °C. In addition, the “BAF3-FLT3 (MIN IL3) 96 well pIC50” value in data set [4] (minus IL3, 96 well) is below 5. For the same compound, in data set [4] (minus IL3, 384 well), the “BAF3-FLT3 (MIN IL3) 384 well pIC50” value is below 5. Moreover, the IC50 in data set [5] (plus IL3, 96 well) was above 10 µM. The “BAF3-KDR (MIN IL3) 384 well pIC50” value in data set [3] (minus IL3, 384 well) is below 5. Moreover, the IC50 against KDR (h) (VEGFR2) was above 10 µM.
The compound `COc1cc(OC)cc(N(CC2CC2)c2ccc3ncc(-c4ccncc4)nc3c2)c1` [Compound 89] yielded a melting point of 105 °C. Further, the “BAF3-FLT3 (MIN IL3) 96 well pIC50” value in data set [4] (minus IL3, 96 well) is on record as below 5. For the same compound, the “BAF3-FLT3 (MIN IL3) 384 well pIC50” value in data set [4] (minus IL3, 384 well) is on record as below 5. Besides, the IC50 in data set [5] (plus IL3, 96 well) is above 10 µM. Moreover, the “BAF3-KDR (MIN IL3) 384 well pIC50” value in data set [3] (minus IL3, 384 well) is below 5. For the same compound, the IC50 on KDR (h) (VEGFR2) was 1.91 µM.
As to `COc1cc(OC)cc(N(CCNC(C)C)c2ccc3ncc(NCC4CCNCC4)nc3c2)c1` (as salt: HCl) (hydrate or solvate) [Compound 161], the melting point is 185 °C.
